15 compounds from ChEMBL document CHEMBL3612045, “3-Benzamides and 3,4,5-trimethoxyphenyl amines as calcium channel blockers” (Bioorg Med Chem, 2015) can be followed below.

Series [1] addresses T1, Voltage-dependent T-type calcium channel subunit alpha-1G (Homo sapiens, UniProt O43497). Description: Inhibition of Cav3.1 channel (unknown origin) assessed as reduction in peak currents at 10 uM by whole cell patch-clamp method. (In general: Patch clamp records ionic current or voltage across a cell membrane.)
For series [2], the target named is T1, Voltage-dependent T-type calcium channel subunit alpha-1G. As to the kind of experiment: Inhibition of Cav3.1 channel (unknown origin) assessed as reduction in peak currents by whole cell patch-clamp method.
Series [3] concerns the target T2, Voltage-dependent N-type calcium channel subunit alpha-1B (Homo sapiens, UniProt Q00975). Description: Inhibition of Cav2.2 channel (unknown origin) assessed as reduction in peak currents at 10 uM by whole cell patch-clamp method.
Target sequence in this assay (Q00975 whole entry, looked up): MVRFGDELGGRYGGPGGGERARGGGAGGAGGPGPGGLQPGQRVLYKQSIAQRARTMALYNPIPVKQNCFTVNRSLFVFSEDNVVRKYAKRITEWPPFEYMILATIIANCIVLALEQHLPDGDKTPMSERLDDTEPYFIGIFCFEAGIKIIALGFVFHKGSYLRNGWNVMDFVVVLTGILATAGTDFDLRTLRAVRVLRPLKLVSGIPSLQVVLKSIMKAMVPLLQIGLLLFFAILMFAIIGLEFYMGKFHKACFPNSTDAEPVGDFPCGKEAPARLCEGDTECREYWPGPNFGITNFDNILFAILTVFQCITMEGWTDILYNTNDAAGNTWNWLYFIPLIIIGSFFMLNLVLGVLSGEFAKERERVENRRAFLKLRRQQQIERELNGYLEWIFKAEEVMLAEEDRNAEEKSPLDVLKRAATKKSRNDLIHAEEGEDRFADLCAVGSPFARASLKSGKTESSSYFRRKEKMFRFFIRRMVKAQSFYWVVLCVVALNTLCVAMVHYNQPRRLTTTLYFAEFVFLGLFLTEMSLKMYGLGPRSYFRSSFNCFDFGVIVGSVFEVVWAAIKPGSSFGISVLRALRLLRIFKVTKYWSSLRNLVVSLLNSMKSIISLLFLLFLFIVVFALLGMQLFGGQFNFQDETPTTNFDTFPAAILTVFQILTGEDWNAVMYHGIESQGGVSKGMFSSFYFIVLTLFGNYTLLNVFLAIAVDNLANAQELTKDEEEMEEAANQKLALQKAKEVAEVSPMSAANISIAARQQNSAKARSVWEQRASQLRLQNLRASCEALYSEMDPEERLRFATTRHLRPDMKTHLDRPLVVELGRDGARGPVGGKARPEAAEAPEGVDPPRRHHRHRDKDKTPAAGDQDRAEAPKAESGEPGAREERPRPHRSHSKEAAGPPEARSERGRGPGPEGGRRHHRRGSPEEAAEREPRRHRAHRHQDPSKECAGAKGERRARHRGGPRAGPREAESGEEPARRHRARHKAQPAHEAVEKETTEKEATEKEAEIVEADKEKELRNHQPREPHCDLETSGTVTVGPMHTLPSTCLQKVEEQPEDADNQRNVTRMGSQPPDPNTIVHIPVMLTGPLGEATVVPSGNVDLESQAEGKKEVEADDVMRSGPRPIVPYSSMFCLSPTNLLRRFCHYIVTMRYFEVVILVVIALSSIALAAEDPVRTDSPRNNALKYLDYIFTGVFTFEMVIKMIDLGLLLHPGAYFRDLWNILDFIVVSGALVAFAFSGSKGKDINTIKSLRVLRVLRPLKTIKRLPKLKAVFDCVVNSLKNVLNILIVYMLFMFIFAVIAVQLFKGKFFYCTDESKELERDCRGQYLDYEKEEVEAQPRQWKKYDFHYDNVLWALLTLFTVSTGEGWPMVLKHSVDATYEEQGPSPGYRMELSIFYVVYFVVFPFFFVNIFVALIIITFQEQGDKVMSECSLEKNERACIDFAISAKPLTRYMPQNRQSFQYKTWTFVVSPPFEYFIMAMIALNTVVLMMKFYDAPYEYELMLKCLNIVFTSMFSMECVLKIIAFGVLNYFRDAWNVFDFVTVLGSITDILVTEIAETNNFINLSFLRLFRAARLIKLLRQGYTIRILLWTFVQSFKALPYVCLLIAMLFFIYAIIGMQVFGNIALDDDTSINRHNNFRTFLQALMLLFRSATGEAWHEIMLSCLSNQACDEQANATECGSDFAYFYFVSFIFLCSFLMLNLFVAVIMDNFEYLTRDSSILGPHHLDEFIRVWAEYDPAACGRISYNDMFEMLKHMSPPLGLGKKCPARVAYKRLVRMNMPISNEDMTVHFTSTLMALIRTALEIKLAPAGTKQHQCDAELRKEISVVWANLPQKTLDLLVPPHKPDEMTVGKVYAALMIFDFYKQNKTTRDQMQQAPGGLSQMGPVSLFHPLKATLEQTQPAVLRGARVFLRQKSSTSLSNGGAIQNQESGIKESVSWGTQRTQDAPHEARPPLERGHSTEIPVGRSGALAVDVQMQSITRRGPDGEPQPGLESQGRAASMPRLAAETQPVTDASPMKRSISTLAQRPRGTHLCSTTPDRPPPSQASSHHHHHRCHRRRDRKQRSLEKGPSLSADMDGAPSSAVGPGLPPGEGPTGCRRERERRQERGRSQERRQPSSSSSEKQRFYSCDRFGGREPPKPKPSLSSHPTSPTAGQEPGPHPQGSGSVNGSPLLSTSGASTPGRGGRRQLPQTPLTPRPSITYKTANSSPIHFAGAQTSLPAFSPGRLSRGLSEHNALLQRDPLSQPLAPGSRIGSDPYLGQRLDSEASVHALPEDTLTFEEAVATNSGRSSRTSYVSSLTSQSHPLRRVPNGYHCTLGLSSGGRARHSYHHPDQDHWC
Series [4] concerns the target T2, Voltage-dependent N-type calcium channel subunit alpha-1B. As to the kind of experiment: Inhibition of Cav2.2 channel (unknown origin) assessed as reduction in peak currents by whole cell patch-clamp method.
Target sequence in this assay (Q00975 whole entry): as the sequence (Q00975 whole entry, looked up) above
Series [5] concerns Rattus norvegicus. Description: Analgesic activity in Sprague-Dawley rat model of spinal cord injury-induced neuropathic pain assessed as reduction in thermal hyperalgesia by measuring paw withdrawal latency time at 100 ug dosed intrathecally measured after 30 mins (reference value: […]). It is filed as functional.
Series [6] has as its system Rattus norvegicus. Description: Analgesic activity in Sprague-Dawley rat model of spinal cord injury-induced neuropathic pain assessed as reduction in mechanical allodynia by measuring paw withdrawal threshold at 10 ug dosed intrathecally measured after 30 mins (reference value: 2.8 +/- 0.4 g). It counts as functional.
Series [7] deals with Rattus norvegicus. Description: Analgesic activity in Sprague-Dawley rat model of spinal cord injury-induced neuropathic pain assessed as reduction in mechanical allodynia by measuring paw withdrawal threshold at 50 ug dosed intrathecally measured after 30 mins (reference value: 2.8 +/- 0.4 g). It counts as functional.
Series [8] deals with Rattus norvegicus. As to the kind of experiment: Analgesic activity in Sprague-Dawley rat model of spinal cord injury-induced neuropathic pain assessed as reduction in mechanical allodynia by measuring paw withdrawal threshold at 100 ug dosed intrathecally measured after 30 mins (reference value: 2.8 +/- 0.4 g). It counts as functional.
Series [9] relates to Rattus norvegicus. As to the kind of experiment: Analgesic activity in Sprague-Dawley rat model of spinal cord injury-induced neuropathic pain assessed as reduction in thermal hyperalgesia by measuring paw withdrawal latency time at 10 ug dosed intrathecally measured after 30 mins (reference value: […]). It is filed as functional.
Series [10] deals with Rattus norvegicus. As to the kind of experiment: Effect on hind limb locomotion in Sprague-Dawley rat model of spinal cord injury-induced neuropathic pain assessed as Basso-Beattie-Bresnahan scores at 10 to 100 ug dosed via intrathecal route. Conditions: in vivo, icv_or_intrathecal. It counts as ADME, organism-based, Hindlimb.
Series [11] relates to Rattus norvegicus. Description: Analgesic activity in Sprague-Dawley rat model of spinal cord injury-induced neuropathic pain assessed as reduction in thermal hyperalgesia by measuring paw withdrawal latency time at 50 ug dosed intrathecally measured after 30 mins (reference value: […]). It counts as functional.

Each structure is given as a SMILES string. Active and inactive are the calls of the source.

T1 sequence (O43497 whole entry): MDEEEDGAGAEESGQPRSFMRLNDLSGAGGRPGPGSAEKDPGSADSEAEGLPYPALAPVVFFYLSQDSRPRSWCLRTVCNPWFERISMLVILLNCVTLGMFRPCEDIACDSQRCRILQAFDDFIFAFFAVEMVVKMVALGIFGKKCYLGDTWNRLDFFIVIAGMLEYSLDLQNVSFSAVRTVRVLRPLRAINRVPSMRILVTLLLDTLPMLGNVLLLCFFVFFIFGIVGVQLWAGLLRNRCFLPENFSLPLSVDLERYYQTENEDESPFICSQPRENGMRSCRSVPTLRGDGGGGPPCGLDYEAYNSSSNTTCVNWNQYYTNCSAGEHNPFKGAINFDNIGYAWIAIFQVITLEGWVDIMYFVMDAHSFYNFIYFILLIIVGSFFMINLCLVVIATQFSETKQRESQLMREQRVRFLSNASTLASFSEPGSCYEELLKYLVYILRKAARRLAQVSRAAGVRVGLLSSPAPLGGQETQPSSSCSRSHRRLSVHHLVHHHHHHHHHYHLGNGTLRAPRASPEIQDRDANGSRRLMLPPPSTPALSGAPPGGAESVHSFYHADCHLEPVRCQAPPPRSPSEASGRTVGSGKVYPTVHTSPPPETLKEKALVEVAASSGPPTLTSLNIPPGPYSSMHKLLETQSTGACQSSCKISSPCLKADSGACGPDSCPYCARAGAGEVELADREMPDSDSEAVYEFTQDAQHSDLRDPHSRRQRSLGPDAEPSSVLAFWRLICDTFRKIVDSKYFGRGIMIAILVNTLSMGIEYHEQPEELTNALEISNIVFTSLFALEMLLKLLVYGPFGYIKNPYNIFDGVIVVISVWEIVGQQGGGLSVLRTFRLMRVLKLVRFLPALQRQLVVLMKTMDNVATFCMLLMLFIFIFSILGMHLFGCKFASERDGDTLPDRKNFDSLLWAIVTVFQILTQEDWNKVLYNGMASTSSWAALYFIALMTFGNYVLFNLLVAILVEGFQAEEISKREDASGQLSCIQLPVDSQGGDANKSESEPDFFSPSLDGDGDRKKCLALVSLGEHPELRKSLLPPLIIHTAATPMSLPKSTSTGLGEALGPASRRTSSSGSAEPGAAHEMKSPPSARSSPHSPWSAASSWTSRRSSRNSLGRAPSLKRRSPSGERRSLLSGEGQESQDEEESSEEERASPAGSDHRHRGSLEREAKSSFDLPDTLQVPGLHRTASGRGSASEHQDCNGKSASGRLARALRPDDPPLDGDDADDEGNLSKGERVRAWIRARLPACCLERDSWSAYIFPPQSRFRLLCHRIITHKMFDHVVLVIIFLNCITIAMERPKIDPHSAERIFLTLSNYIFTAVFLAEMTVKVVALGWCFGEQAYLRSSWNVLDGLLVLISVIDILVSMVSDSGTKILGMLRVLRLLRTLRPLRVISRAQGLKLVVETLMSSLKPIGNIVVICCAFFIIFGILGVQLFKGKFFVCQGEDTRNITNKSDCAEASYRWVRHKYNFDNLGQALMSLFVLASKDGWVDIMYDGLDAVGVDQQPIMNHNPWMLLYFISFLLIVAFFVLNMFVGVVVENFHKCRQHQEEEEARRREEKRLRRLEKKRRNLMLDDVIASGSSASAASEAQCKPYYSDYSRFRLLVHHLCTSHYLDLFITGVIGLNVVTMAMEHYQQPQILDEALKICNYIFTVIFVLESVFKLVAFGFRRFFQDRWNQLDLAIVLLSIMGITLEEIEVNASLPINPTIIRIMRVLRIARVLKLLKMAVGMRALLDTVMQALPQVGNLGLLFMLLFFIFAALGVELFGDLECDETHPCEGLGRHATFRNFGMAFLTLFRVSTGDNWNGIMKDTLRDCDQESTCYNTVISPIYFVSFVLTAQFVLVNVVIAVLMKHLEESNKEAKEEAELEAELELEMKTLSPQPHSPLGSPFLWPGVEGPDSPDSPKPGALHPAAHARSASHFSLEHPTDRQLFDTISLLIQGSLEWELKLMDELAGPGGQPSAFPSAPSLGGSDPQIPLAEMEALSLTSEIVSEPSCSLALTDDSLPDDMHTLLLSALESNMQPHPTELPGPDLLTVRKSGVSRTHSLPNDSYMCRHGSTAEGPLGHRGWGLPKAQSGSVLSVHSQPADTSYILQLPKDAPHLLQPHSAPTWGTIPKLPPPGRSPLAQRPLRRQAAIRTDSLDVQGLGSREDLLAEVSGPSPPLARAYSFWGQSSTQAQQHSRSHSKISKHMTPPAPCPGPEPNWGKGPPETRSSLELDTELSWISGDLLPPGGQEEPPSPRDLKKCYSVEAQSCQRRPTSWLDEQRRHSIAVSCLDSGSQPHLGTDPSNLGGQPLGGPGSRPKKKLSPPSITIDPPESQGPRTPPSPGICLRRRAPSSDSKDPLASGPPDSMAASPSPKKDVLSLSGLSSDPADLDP

As a reminder, the inhibition is the change of the read-out against control, counted positive when it falls. Usually IC50 stands for the concentration that gives 50% inhibition. Turning to `COc1ccc(-c2ccc(CNCc3cc(OC)c(OC)c(OC)c3)o2)cc1Cl`, the figures for the inhibition in series [1] and in series [3] were 77.6% and 70.6%, respectively. Moreover, the IC50 in [2] is 2.4 µM; in series [4] it was 5.9 µM.

On to `COc1ccc(-c2ccc(CNc3cccc(C(N)=O)c3)o2)cc1Cl`, for which, in [1], the inhibition came to 41.6%.

Take `COc1cc(CNCc2c[nH]c3ccc(Cl)cc23)cc(OC)c1OC`: the figures for the inhibition in series [1] and in [3] were 64.2% and 75.2%, respectively. Moreover, the IC50 was 5.2 µM in series [2] and 9.5 µM in series [4].

Take `COc1cc(CNCc2ccc(N3CCOCC3)cc2)cc(OC)c1OC`: the inhibition in series [1] came to 9.8%.

On to `NC(=O)c1cccc(NCc2ccc(-c3cccc(C(F)(F)F)c3)o2)c1`, for which the inhibition in series [1] came out at 39.3%.

Turning to `COc1cc(CNCc2ccc(-c3cncnc3)cc2)cc(OC)c1OC`, the inhibition in series [1] was determined as 38.3%.

In the case of `NC(=O)c1cccc(NCc2ccc(-c3ccc(Cl)cc3)o2)c1`, the inhibition in [1] was 14.5%.

In the case of `COc1cc(CNCc2ccc(-c3ccc(Cl)cc3)o2)cc(OC)c1OC`, the values for the Time with Rattus norvegicus [5], in the series with Rattus norvegicus [9] and in the series on Rattus norvegicus [11] were 8.9 s, 5.8 s and 8.3 s, respectively. In addition, the inhibition in series [1] came to 91.3%; in [3] it was 80.2%. In addition, the figures for the IC50 in [2] and in series [4] were 1.9 µM and 4.3 µM, respectively. In addition, the Activity was 2.6 g in the series on Rattus norvegicus [6], 9.16 g in the series on Rattus norvegicus [7], 11.1 g with Rattus norvegicus [8] and “Non-toxic” in the series with Rattus norvegicus [10].

Turning to `COc1cc(CNCc2ccc(Oc3ccc(C#N)cc3)cc2)cc(OC)c1OC`, the inhibition in series [1] was 60.4%; in series [3] it was 54.9%. For the same compound, the IC50 in series [2] is 6.4 µM; in series [4], 9.4 µM.

As for `NC(=O)c1cccc(NCc2ccc(N3CCOCC3)cc2)c1`, the inhibition in [1] turned out to be 4.1%.

Consider `COc1cc(CNCc2ccc(-c3cccc(C(F)(F)F)c3)o2)cc(OC)c1OC`, for which the inhibition in series [1] was 86.6%; in [3], 81.6%. Besides, the figures for the IC50 in series [2] and in [4] were 2.5 µM and 6.7 µM, respectively.

Take `NC(=O)c1cccc(NCc2cc(-c3ccc(Cl)cc3)on2)c1`: the inhibition in series [1] worked out at 25.2%.

With `N#Cc1ccc(Oc2ccc(-c3ccc(CNc4cccc(C(N)=O)c4)o3)cc2)cc1`, the result in the series on Rattus norvegicus [5], with Rattus norvegicus [6], in the series with Rattus norvegicus [7], in the series with Rattus norvegicus [8], in the series with Rattus norvegicus [9] and in the series on Rattus norvegicus [11] was inactive. Besides, the inhibition in [1] turned out to be 53%; in series [3], 21.6%. The IC50 in series [2] was 7.4 µM.

Turning to `NC(=O)c1cccc(NCc2c[nH]c3ccc(Cl)cc23)c1`, the inhibition in [1] turned out to be 39.9%.

On to `COc1cc(CNCc2ccc(-c3ccncc3)cc2)cc(OC)c1OC`, for which the inhibition in [1] stood at 21.9%.
